This assay concerns the target human RIP1 kinase domain (2-375) (Homo sapiens (Human), UniProt Q13546). As to the kind of experiment: biochemical. In kind it is biochemical. Conditions: 50 uM ATP, read-out: Ki. In a few lines:
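50 nM purified kinase domain from baculovirus-infected insect cells, incubated 2 h with compound in 50 mM Hepes pH 7.5, 30 mM MgCl2, 1 mM DTT, 50 uM ATP, 0.002% Brij-35, 0.5% DMSO. ADP formation read by Transcreener FP at 633 nm excitation. Ki^app fitted with the Morrison tight-binding equation.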

Where [1] appears, read: tight-binding apparent inhibition constant, human RIP1 kinase domain (2-375) 50 nM, 2 hours.
The mark [2] stands for this setting: Table 5, apparent Ki (Morrison tight-binding fit), 50 nM RIP1 kinase domain, 2 hours incubation.

Read-outs that look alike come from different tables or passages of the source.

Chain of human RIP1 kinase domain (2-375) (Q13546 2-375): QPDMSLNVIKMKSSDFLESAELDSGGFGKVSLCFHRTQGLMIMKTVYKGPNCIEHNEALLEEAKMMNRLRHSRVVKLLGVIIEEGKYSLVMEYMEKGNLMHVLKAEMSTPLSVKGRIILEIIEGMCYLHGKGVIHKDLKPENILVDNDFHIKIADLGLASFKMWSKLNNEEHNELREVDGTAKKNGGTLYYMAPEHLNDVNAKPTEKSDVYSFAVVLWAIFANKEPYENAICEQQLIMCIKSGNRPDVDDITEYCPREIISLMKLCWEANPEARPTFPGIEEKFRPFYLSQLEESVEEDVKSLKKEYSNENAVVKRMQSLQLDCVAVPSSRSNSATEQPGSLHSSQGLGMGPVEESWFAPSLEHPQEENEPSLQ

`O=C(N[C@H]1COc2cc(F)cc(F)c2NC1=O)c1nc2n(n1)CCO[C@H]2c1ccccc1` [Example 640, (8S)-8-phenyl-N-[(3S)-6,8-difluoro-4-oxo-3,5-dihydro-2H-1,5-benzoxazepin-3-yl]-6,8-dihydro-5H-[1,2,4]triazolo[5,1-c][1,4]oxazine-2-carboxamide]: the Ki under setting [1] turned out to be 0.0094 µM. On the same count and under the same terms, the value for `O=C(N[C@H]1COc2cc(F)cc(F)c2NC1=O)c1nc2n(n1)CCO[C@@H]2c1ccccc1` [Example 641, (8R)-8-phenyl-N-[(3S)-6,8-difluoro-4-oxo-3,5-dihydro-2H-1,5-benzoxazepin-3-yl]-6,8-dihydro-5H-[1,2,4]triazolo[5,1-c][1,4]oxazine-2-carboxamide] was 0.47 µM; that for `Cc1cc(F)c2c(c1)OC[C@H](NC(=O)c1nc3n(n1)CCO[C@H]3c1ccccc1)C(=O)N2` [Example 642, (8S)-8-phenyl-N-[(3S)-6-fluoro-8-methyl-4-oxo-3,5-dihydro-2H-1,5-benzoxazepin-3-yl]-6,8-dihydro-5H-[1,2,4]triazolo[5,1-c][1,4]oxazine-2-carboxamide] was 0.012 µM.

As to `Cc1cc(F)c2c(c1)OC[C@H](NC(=O)c1nc3n(n1)CCO[C@@H]3c1ccccc1)C(=O)N2` [Example 643, (8R)-8-phenyl-N-[(3S)-6-fluoro-8-methyl-4-oxo-3,5-dihydro-2H-1,5-benzoxazepin-3-yl]-6,8-dihydro-5H-[1,2,4]triazolo[5,1-c][1,4]oxazine-2-carboxamide], the Ki under setting [1] came to 0.36 µM. Consider `Cc1cc2n(n1)CC[C@H](NC(=O)c1ncn(Cc3ncccc3C)n1)C(=O)N2C` [Example 644, 1-[(3-methyl-2-pyridyl)methyl]-N-(6S)-2,4-dimethyl-5-oxo-7,8-dihydro-6H-pyrazolo[1,5-a][1,3]diazepin-6-yl-1,2,4-triazole-3-carboxamide], for which, under setting [1], the Ki came to 0.31 µM.

As to `CN1C(=O)[C@@H](NC(=O)c2nc3n(n2)CCC32CCOC2)COc2ccccc21` (stereo partly drawn) [Example 645, N-[(3S)-5-methyl-4-oxo-2,3-dihydro-1,5-benzoxazepin-3-yl]spiro[5,6-dihydropyrrolo[1,2-b][1,2,4]triazole-7,3′-tetrahydrofuran]-2-carboxamide], the Ki under setting [1] stood at 1.2 µM. On to `Cc1cc2n(n1)CC[C@H](NC(=O)c1nc3n(n1)CCC31CCOC1)C(=O)N2C` (stereo partly drawn) [Example 646, N-[(6S)-2,4-dimethyl-5-oxo-7,8-dihydro-6H-pyrazolo[1,5-a][1,3]diazepin-6-yl]spiro[5,6-dihydropyrrolo[1,2-b][1,2,4]triazole-7,3′-tetrahydrofuran]-2-carboxamide], for which, under setting [1], the Ki was 9.3 µM. Consider `Cc1cccnc1Cn1cnc(C(=O)N[C@H]2CCn3nccc3N(C)C2=O)n1` [Example 647, 1-[(3-methyl-2-pyridyl)methyl]-N-(6S)-4-methyl-5-oxo-7,8-dihydro-6H-pyrazolo[1,5-a][1,3]diazepin-6-yl-1,2,4-triazole-3-carboxamide], for which the Ki under setting [1] is 0.16 µM. Take `Cc1cccnc1Cn1cnc(C(=O)N[C@H]2CCn3nc(C4CC4)cc3N(C)C2=O)n1` [Example 648]: the Ki under setting [1] worked out at 0.28 µM. As to `Cc1cc2n(n1)CC[C@H](NC(=O)c1nc3n(n1)CCN3c1c(F)cccc1F)C(=O)N2C` [Example 649, 4-(2,6-difluorophenyl)-N-[(6S)-2,4-dimethyl-5-oxo-7,8-dihydro-6H-pyrazolo[1,5-a][1,3]diazepin-6-yl]-5,6-dihydroimidazo[1,2-b][1,2,4]triazole-2-carboxamide], the Ki under setting [1] came to 0.14 µM. The same measure, in the same setting: the value for `CN1C(=O)[C@@H](NC(=O)c2ncn(Cc3ccccn3)n2)CCn2nccc21` [Example 650, 1-(2-pyridylmethyl)-N-(6S)-4-methyl-5-oxo-7,8-dihydro-6H-pyrazolo[1,5-a][1,3]diazepin-6-yl-1,2,4-triazole-3-carboxamide] was 0.19 µM; that for `Cc1cc2n(n1)CC[C@H](NC(=O)c1ncn(Cc3ccccn3)n1)C(=O)N2C` [Example 651, 1-(2-pyridylmethyl)-N-(6S)-2,4-dimethyl-5-oxo-7,8-dihydro-6H-pyrazolo[1,5-a][1,3]diazepin-6-yl-1,2,4-triazole-3-carboxamide] was 0.29 µM; that for `CN1C(=O)[C@@H](NC(=O)c2ncn(Cc3ccccn3)n2)CCn2nc(C3CC3)cc21` [Example 652] was 0.19 µM. Take `CN1C(=O)[C@@H](NC(=O)c2ncn(Cc3ncccc3F)n2)CCn2nccc21` [Example 653, 1-[(3-fluoro-2-pyridyl)methyl]-N-(6S)-4-methyl-5-oxo-7,8-dihydro-6H-pyrazolo[1,5-a][1,3]diazepin-6-yl-1,2,4-triazole-3-carboxamide]: under setting [1], the Ki was 0.11 µM.

Regarding `Cc1cc2n(n1)CC[C@H](NC(=O)c1ncn(Cc3ncccc3F)n1)C(=O)N2C` [Example 654, 1-[(3-fluoro-2-pyridyl)methyl]-N-(6S)-2,4-dimethyl-5-oxo-7,8-dihydro-6H-pyrazolo[1,5-a][1,3]diazepin-6-yl-1,2,4-triazole-3-carboxamide], the Ki under setting [1] came out at 0.11 µM. For the compound `CN1C(=O)[C@@H](NC(=O)c2ncn(Cc3ncccc3F)n2)CCn2nc(C3CC3)cc21` [Example 655], the Ki under setting [1] worked out at 0.14 µM. As to `Cc1cc2n(n1)CC[C@H](NC(=O)c1ncn(Cc3ncccc3Cl)n1)C(=O)N2C` [Example 657, 1-[(3-chloro-2-pyridyl)methyl]-N-(6S)-2,4-dimethyl-5-oxo-7,8-dihydro-6H-pyrazolo[1,5-a][1,3]diazepin-6-yl-1,2,4-triazole-3-carboxamide], the Ki under setting [1] is 0.074 µM. In the case of `CN1C(=O)[C@@H](NC(=O)c2ncn(Cc3ncccc3Cl)n2)CCn2nc(C3CC3)cc21` [Example 658], the Ki under setting [1] was 0.054 µM. As to `Cc1cn2c(n1)N(C)C(=O)[C@H](NC(=O)c1ncn(Cc3ccccc3F)n1)CC2` [Example 659, 1-[(2-fluorophenyl)methyl]-N-(7R)-2,9-dimethyl-8-oxo-6,7-dihydro-5H-imidazo[1,2-a][1,3]diazepin-7-yl-1,2,4-triazole-3-carboxamide], under setting [1], the Ki is 0.035 µM. Consider `Cc1cn2c(n1)N(C)C(=O)[C@H](NC(=O)c1ncn(Cc3c(F)cccc3F)n1)CC2` [Example 660, 1-[(2,6-difluorophenyl)methyl]-N-(7R)-2,9-dimethyl-8-oxo-6,7-dihydro-5H-imidazo[1,2-a][1,3]diazepin-7-yl-1,2,4-triazole-3-carboxamide], for which the Ki under setting [1] stood at 0.062 µM.

Take `Cc1cn2c(n1)N(C)C(=O)[C@H](NC(=O)c1ncn(Cc3cc(F)ccc3F)n1)CC2` [Example 661, 1-[(2,5-difluorophenyl)methyl]-N-(7R)-2,9-dimethyl-8-oxo-6,7-dihydro-5H-imidazo[1,2-a][1,3]diazepin-7-yl-1,2,4-triazole-3-carboxamide]: the Ki under setting [1] worked out at 0.057 µM. For `CN1C(=O)[C@@H](NC(=O)c2ncn(Cc3ccccc3)n2)CCn2nc(CCCN3CCOCC3)cc21` [Example 662], the Ki under setting [1] came out at 0.063 µM. `Cc1ncccc1Cn1cnc(C(=O)N[C@H]2CCn3nccc3N(C)C2=O)n1` [Example 663, 1-[(2-methyl-3-pyridyl)methyl]-N-(6S)-4-methyl-5-oxo-7,8-dihydro-6H-pyrazolo[1,5-a][1,3]diazepin-6-yl-1,2,4-triazole-3-carboxamide]: the Ki under setting [1] is 0.42 µM. For `Cc1cc2n(n1)CC[C@H](NC(=O)c1ncn(Cc3cccnc3C)n1)C(=O)N2C` [Example 664, 1-[(2-methyl-3-pyridyl)methyl]-N-(6S)-2,4-dimethyl-5-oxo-7,8-dihydro-6H-pyrazolo[1,5-a][1,3]diazepin-6-yl-1,2,4-triazole-3-carboxamide], the Ki under setting [1] is 0.73 µM. As for `Cc1ncccc1Cn1cnc(C(=O)N[C@H]2CCn3nc(C4CC4)cc3N(C)C2=O)n1` [Example 665], under setting [1], the Ki came to 0.74 µM. Regarding `Cc1cc2n(n1)CC[C@H](NC(=O)c1nc3n(n1)[C@@H](c1ccccc1F)CC3)C(=O)N2C` [Example 666, (5R)-5-(2-fluorophenyl)-N-[(6S)-2,4-dimethyl-5-oxo-7,8-dihydro-6H-pyrazolo[1,5-a][1,3]diazepin-6-yl]-6,7-dihydro-5H-pyrrolo[1,2-b][1,2,4]triazole-2-carboxamide], the Ki under setting [1] was 0.04 µM. Turning to `Cc1cc2n(n1)CC[C@H](NC(=O)c1nc3n(n1)[C@H](c1ccccc1F)CC3)C(=O)N2C` [Example 667, (5S)-5-(2-fluorophenyl)-N-[(6S)-2,4-dimethyl-5-oxo-7,8-dihydro-6H-pyrazolo[1,5-a][1,3]diazepin-6-yl]-6,7-dihydro-5H-pyrrolo[1,2-b][1,2,4]triazole-2-carboxamide], the Ki under setting [1] came to 0.53 µM. Still for that read-out and setting: under `CN1C(=O)[C@@H](NC(=O)c2nc3n(n2)[C@@H](c2ccccc2F)CC3)CCn2nccc21` [Example 668, (5R)-5-(2-fluorophenyl)-N-[(6S)-4-methyl-5-oxo-7,8-dihydro-6H-pyrazolo[1,5-a][1,3]diazepin-6-yl]-6,7-dihydro-5H-pyrrolo[1,2-b][1,2,4]triazole-2-carboxamide] stands 0.022 µM; under `CN1C(=O)[C@@H](NC(=O)c2nc3n(n2)[C@H](c2ccccc2F)CC3)CCn2nccc21` [Example 669, (5S)-5-(2-fluorophenyl)-N-[(6S)-4-methyl-5-oxo-7,8-dihydro-6H-pyrazolo[1,5-a][1,3]diazepin-6-yl]-6,7-dihydro-5H-pyrrolo[1,2-b][1,2,4]triazole-2-carboxamide], 0.61 µM. For the compound `CN1C(=O)[C@@H](NC(=O)c2ncn(Cc3ccccc3)n2)CCn2nc(Cn3ccnc3)cc21` [Example 707, (S)-1-benzyl-N-[2-(imidazol-1-ylmethyl)-4-methyl-5-oxo-7,8-dihydro-6H-pyrazolo[1,5-a][1, 3]diazepin-6-yl]-1,2,4-triazole-3-carboxamide], the Ki under setting [2] is 0.53 µM. `CN1C(=O)[C@@H](NC(=O)c2cc3c(-c4ccccc4F)cccn3n2)COc2ccccc21` [Example 708, 4-(2-fluorophenyl)-N-[(3S)-5-methyl-4-oxo-2,3-dihydro-1,5-benzoxazepin-3-yl]pyrazolo[1,5-a]pyridine-2-carboxamide]: under setting [2], the Ki amounted to 0.004 µM.

The record behind these values is patent US10988459B2 (priority 2015, dated 2021).
